Consider twelve molecules from patent publication US9983218B2, “Indole and indoline derivatives and methods of use thereof” (AbbVie Inc., priority 2008, dated 2018).

Where two headings read alike, the source gives them in different places.

The subject of the assay is SK-N-SH human neuroblastoma cells. Description: Serum deprivation/JC-1 mitochondrial membrane potential (MMP) assay. The assay is classed as cell-based. The note with it: Homo sapiens; for Emax: read-out: JC-1 max %. How it is done: SK-N-SH human neuroblastoma cells obtained from American Type Culture Collection (Rockville, Md.) were maintained in the log phase of growth in Minimal Essential Media (MEM), 10% heat inactivated fetal calf serum and 100 units/mL antibiotic-antimycotic (AA). Cells were cultured and maintained in a humidified incubator at 37° C. under 5% CO2 and 95% air. Cells were trypsinized (0.25%) and subcultured every 3 days and used from 15-18 passages. All cell culture supplies were obtained from Invitrogen (Carlsbad, Calif.).
SK-N-SH cells were plated 2-3 days in advance at a concentration of 50,000 cells/well onto collagen coated black-walled 96 well plates (Becton-Dickinson, Bedford, Mass.) in a total volume of 200 μL. On day of experimental treatment, the media containing serum was aspirated from each well and rinsed once with MEM/1% AA without serum. The cells then were incubated overnight in 100 μL of MEM/1% AA (no serum) with and without dimebolin or novel chemical entities overnight for ˜18 hours. The following day, JC-1 dye (5,5′,6,6′-tetrachloro-1,1′,3,3′-tetraethylbenzimidazolcarbocyanide) was diluted 1:10 into MEM media according to the JC-1 Mitochondrial Membrane Potential Assay Kit: (Cayman Chemical Company, Ann Arbor, Mich.) and then 10 μL of the JC-1 dye solution was added to each well. The plates were centrifuged for 5 minutes at 400×g at room temperature followed by 35 minute incubation at 37° C. The plates were washed twice with 200[…] μL of provided Assay Buffer followed an addition of 100 μL of Assay Buffer to each well. The plates were read with an excitation and emission of 560 nm and 595 nM for red fluorescence and with an excitation and emission of 485 nm and 535 nM for green fluorescence to determine the final JC-1 value taking the red to green fluorescence ratio. This assay is based on change in mitochondrial membrane potential (MMP) using this lipophilic cationic dye, JC-1, by monitoring the changes in the ratio of red to green fluorescence as the MMP depolarizes. This change in MMP reflects the health of the cell with healthy, viable cells have a high JC-1 ratio and high MMP whereas apoptotic, unhealthy cells have a low JC-1 ratio or low MMP.
For the ability of compounds to reverse the stress due to serum deprivation and increase the JC-1 ratio, the percent maximal intensity in JC-1 ratio was normalized to that induced by the peak value for 10 μM dimebolin and plotted against the compound concentration to calculate EC50 values and to control for plate-to-plate variability. Concentration-response data were analyzed using GraphPad Prism (San Diego, Calif.); the EC50 values were derived from a single curve fit to the mean data of n=2-3, in duplicates.
All compounds were dissolved in dimethyl sulfoxide at 10 mM stock solutions and tested at a concentration that the dimethyl sulfoxide levels never exceeded 1%.

[1] abbreviates: SK-N-SH, percent maximal intensity in JC-1 ratio normalized to 10 μM dimebolin.
Setting [2] is: SK-N-SH cells, serum deprivation ~18 hours, JC-1 ratio normalized to peak value for 10 μM dimebolin, single curve fit to mean data of n=2-3, read-out: EC50.

Turning to `Cc1ccc2c(c1)c1c(n2CCOc2ccc(F)cc2)CC2CCC1N2C` (stereo not drawn) [Example 67, 5-[2-(4-fluorophenoxy)ethyl]-2,11-dimethyl-5,6,7,8,9,10-hexahydro-7,10-epiminocyclohepta[b]indole], the Emax under setting [1] came to 132%. Moreover, under setting [2], the EC50 was 6.49 µM.
As for `Cc1ccc2c(c1)c1c(n2-c2ccc3ccncc3c2)C[C@@H]2CC[C@H]1N2C` [Example 68, (7S,10R)-5-isoquinolin-7-yl-2,11-dimethyl-5,6,7,8,9,10-hexahydro-7,10-epiminocyclohepta[b]indole], the Emax under setting [1] came out at 213%. Besides, the EC50 under setting [2] stood at 3.22 µM.
For `Cc1ccc2c(c1)c1c(n2S(=O)(=O)c2ccccc2)CC2CCC1N2C` (stereo not drawn) [Example 69, 2,11-dimethyl-5-(phenylsulfonyl)-5,6,7,8,9,10-hexahydro-7,10-epiminocyclohepta[b]indole], in that order: 161% and 4.43 µM.
On to `Cc1ccc2c(c1)c1c(n2S(=O)(=O)c2cccnc2)CC2CCC1N2C` (stereo not drawn) [Example 77, 2,11-dimethyl-5-(pyridin-3-ylsulfonyl)-5,6,7,8,9,10-hexahydro-7,10-epiminocyclohepta[b]indole], for which, under setting [1], the Emax came out at 223%. Besides, the EC50 under setting [2] was 9.22 µM.
For `Cc1ccc(CCn2c3c(c4ccccc42)C2CCC(C3)N2C)cn1` (stereo not drawn) [Example 78, 11-methyl-5-[2-(6-methylpyridin-3-yl)ethyl]-5,6,7,8,9,10-hexahydro-7,10-epiminocyclohepta[b]indole] the same measures were 211% and 9.69 µM.
For `Cc1ccc(CCn2c3c(c4cc(F)ccc42)C2CCC(C3)N2C)cc1` (stereo not drawn) [Example 84, 2-fluoro-11-methyl-5-[2-(4-methylphenyl)ethyl]-5,6,7,8,9,10-hexahydro-7,10-epiminocyclohepta[b]indole], the Emax under setting [1] was 173%. For the same molecule, the EC50 under setting [2] turned out to be 6.76 µM.
For `CN1C2CCC1c1c(n(CCc3ccc(Cl)cc3)c3ccc(Br)cc13)C2` (stereo not drawn) [Example 87, 2-bromo-5-[2-(4-chlorophenyl)ethyl]-11-methyl-5,6,7,8,9,10-hexahydro-7,10-epiminocyclohepta[b]indole] the same measures were 139% and 3.33 µM.
Take `Cc1ccc(S(=O)(=O)n2c3c(c4cc(Br)ccc42)C2CCC(C3)N2C)cc1` (stereo not drawn) [Example 90, 2-bromo-11-methyl-5-[(4-methylphenyl)sulfonyl]-5,6,7,8,9,10-hexahydro-7,10-epiminocyclohepta[b]indole]: under setting [1], the Emax came out at 176%. For the same molecule, the EC50 under setting [2] was 3.43 µM.
For `COc1ccc2c(c1)c1c(n2CCc2ccc(C)nc2)CC2CCC1N2C` (stereo not drawn) [Example 91, 2-methoxy-11-methyl-5-[2-(6-methylpyridin-3-yl)ethyl]-5,6,7,8,9,10-hexahydro-7,10-epiminocyclohepta[b]indole], in that order: 129% and 6.33 µM.
As to `COc1cccc2c3c(n(CCc4ccc(Cl)cc4)c12)CC1CCC3N1C` (stereo not drawn) [Example 96, 5-[2-(4-chlorophenyl)ethyl]-4-methoxy-11-methyl-5,6,7,8,9,10-hexahydro-7,10-epiminocyclohepta[b]indole], under setting [1], the Emax amounted to 169%. The EC50 under setting [2] is 4.41 µM.
`CN1C2CCC1c1c(n(CCc3ccc(Cl)cc3)c3ccc(OC(F)(F)F)cc13)C2` (stereo not drawn) [Example 97, 5-[2-(4-chlorophenyl)ethyl]-11-methyl-2-(trifluoromethoxy)-5,6,7,8,9,10-hexahydro-7,10-epiminocyclohepta[b]indole] gave an EC50 (SK-N-SH, 18 h) of 5.13 µM. Also, the Emax (SK-N-SH) was determined as 164%.
On to `CN1C2CCC1c1c(n(CCc3ccc(Cl)cc3)c3ccc(C(F)(F)F)cc13)C2` (stereo not drawn) [Example 98, 5-[2-(4-chlorophenyl)ethyl]-11-methyl-2-(trifluoromethyl)-5,6,7,8,9,10-hexahydro-7,10-epiminocyclohepta[b]indole], for which the Emax under setting [1] was determined as 176%. Further, the EC50 under setting [2] worked out at 7.26 µM.

By EC50 is commonly meant the midpoint of the concentration-response curve.
